From patent US20240352309A1, “FLUORESCENT DYE, AND PREPARATION METHOD THEREFOR AND USE THEREOF” (FLUORESCENCE DIAGNOSIS (SHANGHAI) BIOTECH COMPANY LTD., priority 2021, published 2024)

Legend:
[1] = Fluorescence emission in glycerol and methanol (Test Example 1); type: physicochemical; details: for Fluorescence intensity ratio in glycerol and methanol: 1×10^−5 M in glycerol vs methanol, maximum excitation wavelength; for Emission wavelength: 1×10^−5 M, excited at maximum excitation wavelength of each dye
Method: The fluorescent dye (molecular rotors) prepared in Examples dye1-dye42 were dissolved in DMSO each to prepare a mother solution with a concentration of 1×10^−2 M, and each mother solution was added to glycerol and methanol respectively and was mixed well, and a solution with a final concentration of 1×10^−5 M was prepared.

[2] = test system: RNA aptamer in stable cell line (293T/17); assay: Flow detection of cells expressing RNA aptamer (Test Example 6); type: cell-based; details: 1 μM dye in PBS, 5 minutes
[3] = Fluorescence emission in glycerol-diethanol mixed solutions of different viscosities (Test Example 2); type: physicochemical; details: glycerol-diethanol mixed solution, 16.4-946.0 cp, 1×10^−5 M
Text: The dye7, dye9, dye12, dye25, dye40 were respectively added into a glycerol-diethanol mixed solution with the following viscosities: 16.4 cp (the volume ratio of glycerol was 0%), 29.8 cp (the volume ratio of glycerol was 20%), 64.5 cp (the volume ratio of glycerol was 40%), 143.5 cp (the volume ratio of glycerol was 60%), 377.0 cp (the volume ratio of glycerol was 80%), 946.0 cp (the volume ratio of glycerol was 100%), so as to prepare solutions with a final concentration of 1×10^−5 M; the fluorescence emission spectra under different viscosity conditions were shown as FIGS. 1, 3, 5, 7 and 9, wherein the emission wavelengths of the above-mentioned molecular rotors were respectively 620 nm, 576 nm, 650 nm, 670 nm and 720 nm. According to the results, fluorescence intensities of fluorescent dyes of the same concentration increase with ambient viscosity.

[4] = Fluorescence in solvents with different polarities (Test Example 2); type: physicochemical; details: methylbenzene, ethyl acetate, methyl alcohol, acetonitrile, dimethyl sulfoxide
[5] = Emission spectra in glycerol, wavelength adjustment (Test Example 3); type: physicochemical; details: 1×10^−5 M, dye6 vs dye5, oxo-carbonyl turned into thiocarbonyl
Method: The dye5, dye6, dye11, dye12, dye13, dye14, dye39 and dye42 were added into glycerol to prepare a solution with a final concentration of 1×10^−5 M, fluorescent dyes were excited with corresponding maximum excitation wavelength so as to obtain the emission spectra, and some of the emission spectra were normalized.

[6] = Background fluorescence in PBS (Test Example 4); type: physicochemical; details: 1×10^−5 M, relative to contrast dyes of the same group (dye48, dye49, dye50, dye47)
Method: The dye1 and dye48; dye22 and dye49; dye40 and dye50; dye9, dye10 and dye47 were added to PBS to prepare a solution with a final concentration of 1×10^−5 M, corresponding maximum excitation wavelengths were used for exciting the dyes so that their fluorescence intensities in PBS could be detected, and normalization was performed with the strongest fluorescence intensity in each group of samples as 100, as shown respectively in FIGS. 21, 22, 23 and 24.

[7] = test system: RNA aptamer in stable cell line (293T/17); assay: Confocal imaging of cells expressing RNA aptamer (Test Example 5); type: cell-based; details: 2 uM dye, 10 min incubation, confocal microscopy; cells not expressing aptamers do not fluoresce
Method: Stable cell line (293T/17) continuously expressing RNA aptamer ([…]) and control cells (293T/17) were used, and cell culture media of dye1, dye12, dye25, and dye41 with a final concentration of 2 uM substituted original cell culture media after the cell line and control cells grew to a cell confluence of 90% under the conventional mammalian cell culture condition (37° C., 5% carbon dioxide, 100% relative humidity), and were incubated for 10 min (37° C., 5% carbon dioxide, 100% relative humidity).

Compound | Fluorescence intensity ratio in glycerol and methanol [1] | Emission wavelength [1] | other results
CN(C)c1ccc(C2=C(C#N)C(=C(C#N)C#N)OC2(C)C)cc1 [dye50, reference compound] | – | – | dye background fluorescence before binding [2]: obvious
CC1=CC(C)(C)N(C)c2ccc(/C=C3\SC(=O)NC3=S)cc21 [dye7] | 754 | 620 nm | Emission wavelength [3]: 620 nm; viscosity response of fluorescence intensity [3]: sensitive to viscosity; fluorescence intensity in solvents with different polarities [4]: weak
CN1CCSc2cc(/C=C3\SC(=S)NC3=O)ccc21 [dye6] | 658 | 608 nm | increase of emission wavelength [5]: about 50 nm
CCN1C(=O)/C(=C/c2ncc(N(C)CCO)s2)SC1=S [dye2] | 587 | 532 nm | –
CN1C(=O)/C(=C/c2cc3sc(N(C)CCOCCOCCO)cc3s2)SC1=S [dye18] | 1026 | 588 nm | –
O=C1NC(=S)N/C1=C\c1cc2c3c(c1)CCCN3CCC2 [dye9] | 951 | 586 nm | Emission wavelength [3]: 576 nm; viscosity response of fluorescence intensity [3]: sensitive to viscosity; background fluorescence in PBS [6]: lower background fluorescence; fluorescence intensity in solvents with different polarities [4]: weak
CN1CCSc2cc(/C=C3\SC(=O)NC3=O)ccc21 [dye5] | 1021 | 550 nm | –
CN(CCO)c1cc2sc(/C=C3\SC(=S)NC3=S)cc2s1 [dye14] | 852 | 720 nm | –
CN(CCO)c1cc2sc(/C=C3\NC(=S)N(CCC(=O)O)C3=O)cc2s1 [dye17] | 993 | 630 nm | –
CN1CCOc2cc(/C=C3\NC(=S)NC3=O)ccc21 [dye3] | 637 | 580 nm | dye background fluorescence before binding [2]: very low; fluorescence after binding to RNA aptamer in cells [2]: notably activated
CN(CCO)c1cc2c(s1)-c1sc(/C=C3\OC(=N)NC3=N)cc1[Si]2(C)C [dye37] | 620 | 720 nm | –
CN(CCO)c1cc2sc(/C=C3\SC(=S)NC3=O)cc2s1 [dye12] | 654 | 650 nm | Emission wavelength [3]: 650 nm; viscosity response of fluorescence intensity [3]: sensitive to viscosity; fluorescence intensity in solvents with different polarities [4]: weak; fluorescence of cells expressing aptamers [7]: bright fluorescence
S=C1NC(=S)/C(=C/c2cc3c4c(c2)CCCN4CCC3)S1 [dye10] | 638 | 675 nm | background fluorescence in PBS [6]: lower background fluorescence
CCCCCCCCCCN(C)c1cc2sc(/C=C3\SC(=S)N(C)C3=O)cc2s1 [dye19] | 1098 | 650 nm | –
CN1CCOc2cc(/C=C3\SC(=O)NC3=S)ccc21 [dye4] | 984 | 620 nm | –
CN1C(=O)/C(=C/c2cc3sc(N(C)CCO)cc3s2)SC1=S [dye15] | 891 | 655 nm | –
CN1C(=O)S/C(=C\c2ccc(N(C)CCO)s2)C1=O [dye1] | 695 | 520 nm | background fluorescence in PBS [6]: lower background fluorescence; fluorescence of cells expressing aptamers [7]: bright fluorescence
CN(CCO)c1cc2sc(/C=C3\SC(=O)NC3=O)cc2s1 [dye11] | 954 | 590 nm | –
CN1C(=S)S/C(=C\c2cc3sc(N(C)CCO)cc3s2)C1=S [dye16] | 982 | 730 nm | –
CN1C(=O)/C(=C/c2ccc3cc(N(C)CCCl)ccc3n2)SC1=S [dye26] | 871 | 660 nm | –

The next lines start with results.

Fluorescence intensity ratio in glycerol and methanol [1] | Emission wavelength [1] | Compound | other results
510 | 735 nm | CN(CCO)c1ccc2c(c1)sc1cc(/C=C3\SC(=S)NC3=O)sc12 [dye36] | –
765 | 590 nm | CN(CCO)c1ccc2nc(/C=C3\SC(=S)NC3=O)sc2c1 [dye27] | –
465 | 750 nm | CN(C)CCN(C)c1ccc2cc(/C=C3\SC(=O)NC3=O)sc2c1 [dye24] | –
687 | 654 nm | CN(C)c1ccc2cc(/C=C3\NC(=S)NC3=S)oc2c1 [dye32] | –
980 | 685 nm | CN(C)c1ccc2cc(/C=C3\SC(=S)N(CCC(=O)O)C3=S)oc2c1 [dye31] | –
465 | 680 nm | CN(CCO)c1ccc2c(c1)C(C)(C)C(/C=C1\SC(=O)NC1=O)=N2 [dye44] | –
682 | 690 nm | CCN1C(=O)S/C(=C\c2cc3ccc(N(C)CCO)cc3o2)C1=O [dye28] | –
741 | 730 nm | CN(CCO)c1cc2cc3sc(/C=C4\OC(=S)NC4=S)cc3cc2s1 [dye38] | –
562 | 717 nm | CN(CCO)c1ccc2c(c1)C(C)(C)C(/C=C1\SC(=S)NC1=O)=N2 [dye45] | –
1133 | 650 nm | O=C1NC(=S)S/C1=C\c1cc2sc(N(CCO)CCO)cc2s1 [dye20] | –
761 | 640 nm | CN(C)c1ccc2cc(/C=C3\SC(=S)N(N)C3=O)sc2c1 [dye30] | –
364 | 800 nm | CN(CCO)c1cc2c(s1)-c1sc(/C=C3\SC(=S)NC3=S)cc1C2(C)C [dye42] | –
1098 | 635 nm | O=C1NC(=S)N/C1=C\c1cc2sc(N(CCO)CCO)cc2s1 [dye21] | dye background fluorescence before binding [2]: very low; fluorescence after binding to RNA aptamer in cells [2]: notably activated
461 | 622 nm | CN(C)c1ccc2nc(/C=C3\SC(=N)NC3=N)oc2c1 [dye33] | –
985 | 640 nm | CN(CCNS(C)(=O)=O)c1ccc2cc(/C=C3\NC(=S)NC3=O)sc2c1 [dye23] | –
687 | 605 nm | CN(CCO)c1ccc2cc(/C=C3\SC(=S)NC3=O)sc2c1 [dye22] | background fluorescence in PBS [6]: lower background fluorescence
530 | 740 nm | CN(CCO)c1ccc2c(c1)C(C)(C)c1cc(/C=C3\SC(=S)NC3=O)ccc1-2 [dye35] | –
721 | 650 nm | CN1C(=O)/C(=C/c2nc3ccc(N(C)CCO)cc3o2)NC1=S [dye29] | –
630 | 680 nm | CN(CCO)c1ccc2c(c1)C(C)(C)c1cc(/C=C3\SC(=O)NC3=O)ccc1-2 [dye34] | dye background fluorescence before binding [2]: very low; fluorescence after binding to RNA aptamer in cells [2]: notably activated
627 | 820 nm | CN(CCO)c1ccc2c(c1)C(C)(C)c1cc(/C=C3\SC(=S)NC3=S)sc1-2 [dye39] | –
594 | 735 nm | CN(CCO)c1cc2c(s1)-c1sc(/C=C3\NC(=S)NC3=O)cc1C2(C)C [dye41] | fluorescence of cells expressing aptamers [7]: bright fluorescence
695 | 730 nm | CN1C(=S)N/C(=C\c2cc3c(s2)-c2ccc(N(C)CCO)cc2C3(C)C)C1=S [dye40] | Emission wavelength [3]: 720 nm; viscosity response of fluorescence intensity [3]: sensitive to viscosity; background fluorescence in PBS [6]: lower background fluorescence; fluorescence intensity in solvents with different polarities [4]: weak
